“And” between values parts separate entries of the source, which are not always exact repeats. Equal entries are not always repeated. Where two headings read alike, the source gives them in different places.
Key:
Botrytis cinerea = type: cell-based; parameters: key to Plate antimicrobial activity test Botrytis cinerea, level: a case where hyphae extended to the entire well and no antimicrobial activity was found is defined as “level 0,”; a case where hyphae extended to less than a half of the well and thus the peptide inhibited the growth of the hyphae is defined as “level 1,”; a case where ungerminated spores were present and the peptide partially inhibited the germination is defined as “level 2,”; a case where all spores were ungerminated and the peptide completely inhibited the germination is defined as “level 3.”; details: 25° C. for 1 day or 2 days, microscopic observation
[1] = tested on: Colletotrichum destructivum; type: cell-based; parameters: key to Plate antimicrobial activity test Colletotrichum destructivum, level: a case where hyphae extended to the entire well and no antimicrobial activity was found is defined as “level 0,”; a case where hyphae extended to less than a half of the well and thus the peptide inhibited the growth of the hyphae is defined as “level 1,”; a case where ungerminated spores were present and the peptide partially inhibited the germination is defined as “level 2,”; a case where all spores were ungerminated and the peptide completely inhibited the germination is defined as “level 3.”; details: 25° C. for 1 day or 2 days, microscopic observation
[2] = tested on: Colletotrichum orbiculare; type: cell-based; parameters: key to Plate antimicrobial activity test Colletotrichum orbiculare, level: a case where hyphae extended to the entire well and no antimicrobial activity was found is defined as “level 0,”; a case where hyphae extended to less than a half of the well and thus the peptide inhibited the growth of the hyphae is defined as “level 1,”; a case where ungerminated spores were present and the peptide partially inhibited the germination is defined as “level 2,”; a case where all spores were ungerminated and the peptide completely inhibited the germination is defined as “level 3.”; details: 25° C. for 1 day or 2 days, microscopic observation
Fusarium oxysporum = type: cell-based; parameters: key to Plate antimicrobial activity test Fusarium oxysporum, level: a case where hyphae extended to the entire well and no antimicrobial activity was found is defined as “level 0,”; a case where hyphae extended to less than a half of the well and thus the peptide inhibited the growth of the hyphae is defined as “level 1,”; a case where ungerminated spores were present and the peptide partially inhibited the germination is defined as “level 2,”; a case where all spores were ungerminated and the peptide completely inhibited the germination is defined as “level 3.”
Pyricularia oryzae = type: cell-based; parameters: key to Plate antimicrobial activity test Pyricularia oryzae, level: a case where hyphae extended to the entire well and no antimicrobial activity was found is defined as “level 0,”; a case where hyphae extended to less than a half of the well and thus the peptide inhibited the growth of the hyphae is defined as “level 1,”; a case where ungerminated spores were present and the peptide partially inhibited the germination is defined as “level 2,”; a case where all spores were ungerminated and the peptide completely inhibited the germination is defined as “level 3.”; details: 25° C. for 1 day or 2 days, microscopic observation
[3] = tested on: Colletotrichum destructivum; experiment: Colletotrichum destructivum leaf inoculation test (Chinese cabbage leaf); type: in vivo; details: peptide 100 μM; Chinese cabbage leaf, 25° C. for 4 days, lesions by visual inspection; symbols ◯/Δ/X not defined
Procedure: In the present example, a suspension comprising Colletotrichum destructivum and a peptide to be tested was dropped on a plant leaf, and lesions were then observed by visual inspection to evaluate the antimicrobial activity of the tested peptide. First, the pores of Colletotrichum destructivum were suspended in water to result in a spore concentration of 5×10^5 spores/ml, so as to prepare a water suspension of spores. Subsequently, a peptide to be tested (TsORF6-1) was added to the water suspension of spores, so that the final concentration of the peptide to be tested became 0 μM, 1 μM, 10 μM or 100 μM. Thereafter, 10 μl each of the water suspension of spores containing the peptide to be tested was dropped on the front side and the back side of the leaf of Chinese cabbage (variety name: “Kigokoro 85”). In this condition, incubation was carried out at 25° C. for 4 days. Thereafter, the front and back sides of the leaf were observed by visual inspection.

[4] = tested on: plant pathogenic filamentous fungi; type: cell-based; details: Table 3

| Substance | Plate antimicrobial activity test Botrytis cinerea, level (Botrytis cinerea; peptide 1 μM) | Plate antimicrobial activity test Botrytis cinerea, level (Botrytis cinerea; peptide 10 μM) | Plate antimicrobial activity test Botrytis cinerea, level (Botrytis cinerea; peptide 100 μM) | Plate antimicrobial activity test Colletotrichum destructivum, level ([1]; peptide 1 μM) | Plate antimicrobial activity test Colletotrichum destructivum, level ([1]; peptide 10 μM) | Plate antimicrobial activity test Colletotrichum destructivum, level ([1]; peptide 100 μM) | Plate antimicrobial activity test Colletotrichum orbiculare, level ([2]; peptide 1 μM) | Plate antimicrobial activity test Colletotrichum orbiculare, level ([2]; peptide 10 μM) | Plate antimicrobial activity test Colletotrichum orbiculare, level ([2]; peptide 100 μM) | Plate antimicrobial activity test Fusarium oxysporum, level (Fusarium oxysporum) | Plate antimicrobial activity test Pyricularia oryzae, level (Pyricularia oryzae; peptide 1 μM) | Plate antimicrobial activity test Pyricularia oryzae, level (Pyricularia oryzae; peptide 10 μM) | Plate antimicrobial activity test Pyricularia oryzae, level (Pyricularia oryzae; peptide 100 μM) | Leaf inoculation test Chinese cabbage/Colletotrichum destructivum [3] | germination inhibitory activity against plant pathogenic filamentous fungi, result in words [4] |
| --- | --- | --- | --- | --- | --- | --- | --- | --- | --- | --- | --- | --- | --- | --- | --- |
| VAKMM (listed as Solanum lycopersicum) [TsORF6-1-5aa-16, partial peptide of TsORF6-1, 5 amino acid residues] | 0 | 0 | 0 | 0 | 0 | 0 | 0 | 0 | 0 | 0 | 0 | 0 | 0 | ◯ | extremely excellent germination inhibitory activity |
| KVAKM (listed as Solanum lycopersicum) [TsORF6-1-5aa-15, partial peptide of TsORF6-1, 5 amino acid residues] | 0 | 0 | 0 | 0 | 0 | 0 | 0 | 0 | 0 | 0 | 0 | 0 | 0 | Δ |  |
| KVMIVVKT (listed as Solanum lycopersicum) [TsORF6-1-8aa-2, partial peptide of TsORF6-1, 8 amino acid residues] | 0 | 0 | 3 | 0 | 0 | 2 | 0 | 0 | 2 | 3 and 0 | 0 | 0 | 2 | ◯ | extremely excellent germination inhibitory activity |
| KKVAK (listed as Solanum lycopersicum) [TsORF6-1-5aa-14, partial peptide of TsORF6-1, 5 amino acid residues] | 0 | 0 | 0 | 0 | 0 | 0 | 0 | 0 | 0 | 0 | 0 | 0 | 0 | Δ |  |
| KTKVK (listed as Solanum lycopersicum) [TsORF6-1-5aa-8, partial peptide of TsORF6-1, 5 amino acid residues] | 0 | 0 | 0 | 0 | 0 | 0 | 0 | 0 | 0 | 0 | 0 | 0 | 0 |  |  |
| KVKNK (listed as Solanum lycopersicum) [TsORF6-1-5aa-10, partial peptide of TsORF6-1, 5 amino acid residues] | 0 | 0 | 0 | 0 | 0 | 0 | 0 | 0 | 0 | 0 and 1 | 0 | 0 | 0 | Δ |  |
| KVAKMMVK (listed as Solanum lycopersicum) [TsORF6-1-8aa-15, partial peptide of TsORF6-1, 8 amino acid residues] | 0 | 0 | 0 | 0 | 0 | 0 | 0 | 0 | 0 | 0 | 0 | 0 | 0 |  |  |
| TKVKN (listed as Solanum lycopersicum) [TsORF6-1-5aa-9, partial peptide of TsORF6-1, 5 amino acid residues] | 0 | 0 | 0 | 0 | 0 | 0 | 0 | 0 | 0 | 0 | 0 | 0 | 0 |  |  |

Reference: patent publication US12396461B2, “Functional peptides having antimicrobial activity against phytopathogenic microorganisms” (TOYOTA JIDOSHA KABUSHIKI KAISHA, priority 2019, dated 2025)
